# System: H460 tumour-bearing nude mice
# Assay: In vivo antitumor efficacy and safety of treatment
# Parameters: species or system mouse
# Settings: five times, n = 5
# From the text: Data are presented as mean ± s.d.
# (1 picture or pasted object on this page, not shown here)
structure (smiles),measurement,setting,value
"COc1cccc2c1C(=O)c1c(O)c3c(c(O)c1C2=O)C[C@@](O)(C(=O)CO)C[C@@H]3O[C@H]1C[C@H](N)[C@H](O)[C@H](C)O1 [DOX, doxorubicin]",mean tumour volume after 14 days,"i.v. DOX dose 2.0 mg/kg, once every other day",854 mm^3
same,median survival time,"i.v. identical DOX dose 2.0 mg/kg, Kaplan–Meier",12 days

# Reference: publication PMC6813295, “A tumour-selective cascade activatable self-detained system for drug delivery and cancer imaging” (Nature Communications, 2019)
